Assay results reported in the NIST ThermoML archive (doi:10.1016/j.jct.2017.08.004).

Test: molar heat capacity at constant pressure
Conditions: 101.33 kPa, Crystal

OC[C@@H](O)[C@@H](O)[C@H](O)[C@H](O)CO [D-mannitol]
molar heat capacity at constant pressure [J/K/mol]
Conditions	Small sample (50 mg) DSC	relaxation calorimetry
1 K	–	0.001199
1.923 K	–	0.006707
2 K	–	0.007583
2.139 K	–	0.009192
2.373 K	–	0.01256
2.634 K	–	0.01689
2.928 K	–	0.02301
3 K	–	0.02469
3.249 K	–	0.03152
3.602 K	–	0.04303
3.997 K	–	0.05809
4 K	–	0.05872
4.435 K	–	0.07904
4.92 K	–	0.1115
5 K	–	0.1167
5.459 K	–	0.1535
6 K	–	0.2067
6.057 K	–	0.2121
6.719 K	–	0.2951
7 K	–	0.3376
7.454 K	–	0.4159
8 K	–	0.5187
8.269 K	–	0.5829
9 K	–	0.7614
9.171 K	–	0.8041
10 K	–	1.071
10.2 K	–	1.131
11.29 K	–	1.565
12.52 K	–	2.163
13.89 K	–	2.945
15 K	–	3.67
15.42 K	–	3.976
17.11 K	–	5.278
18.99 K	–	6.927
20 K	–	7.832
21.08 K	–	8.9
23.4 K	–	11.29
25 K	–	13.01
25.98 K	–	14.06
28.84 K	–	17.28
30 K	–	18.66
32.02 K	–	20.91
35 K	–	24.4
35.55 K	–	25.01
39.45 K	–	29.53
40 K	–	30.07
43.79 K	–	34.41
45 K	–	35.64
48.59 K	–	39.53
50 K	–	41.11
53.92 K	–	45.29
55 K	–	46.48
59.84 K	–	51.45
60 K	–	51.67
65 K	–	56.63
66.4 K	–	58.03
70 K	–	61.48
73.71 K	–	64.84
75 K	–	66.19
80 K	–	70.77
81.8 K	–	72.99
85 K	–	75.22
90 K	–	79.54
90.8 K	–	80.09
95 K	–	83.75
100 K	–	87.87
100.74 K	–	87.67
110 K	–	95.83
110.88 K	–	96.15
120 K	–	103.5
120.83 K	–	104.57
130 K	–	110.93
130.91 K	–	112.04
140 K	–	118.19
140.97 K	–	119.24
150 K	–	125.32
151.12 K	–	126.15
160 K	–	132.36
161.2 K	–	133.18
170 K	–	139.33
171.28 K	–	140.05
180 K	–	146.27
181.37 K	–	147.35
188.15 K	143.51	–
189.15 K	144.52	–
190 K	–	153.2
190.15 K	145.73	–
191.15 K	146.73	–
191.44 K	–	154.23
192.15 K	147.51	–
193.15 K	148.54	–
194.15 K	149.99	–
195.15 K	151.06	–
196.15 K	152.24	–
197.15 K	153.48	–
198.15 K	154.54	–
199.15 K	155.53	–
200 K	–	160.12
200.15 K	156.46	–
201.15 K	157.4	–
201.56 K	–	160.73
202.15 K	158.14	–
203.15 K	158.99	–
204.15 K	159.96	–
205.15 K	160.76	–
206.15 K	161.64	–
207.15 K	162.47	–
208.15 K	163.24	–
209.15 K	163.78	–
210 K	–	167.07
210.15 K	164.68	–
211.15 K	165.46	–
211.67 K	–	167.61
212.15 K	166.24	–
213.15 K	167.09	–
214.15 K	167.92	–
215.15 K	168.49	–
216.15 K	169.55	–
217.15 K	170.24	–
218.15 K	170.94	–
219.15 K	171.88	–
220 K	–	174.05
220.15 K	172.81	–
221.15 K	173.38	–
221.78 K	–	175.44
222.15 K	174.15	–
223.15 K	174.98	–
224.15 K	175.72	–
225.15 K	176.52	–
226.15 K	177.3	–
227.15 K	177.96	–
228.15 K	178.66	–
229.15 K	179.32	–
230 K	–	181.07
230.15 K	179.98	–
231.15 K	180.68	–
231.88 K	–	182.4
232.15 K	181.3	–
233.15 K	182.34	–
234.15 K	182.94	–
235.15 K	183.75	–
236.15 K	184.67	–
237.15 K	185.22	–
238.15 K	186	–
239.15 K	186.79	–
240 K	–	188.14
240.15 K	187.46	–
241.15 K	188.04	–
241.89 K	–	189.63
242.15 K	188.69	–
243.15 K	189.39	–
244.15 K	190.16	–
245.15 K	190.77	–
246.15 K	191.37	–
247.15 K	192.19	–
248.15 K	192.92	–
249.15 K	193.73	–
250 K	–	195.26
250.15 K	194.6	–
251.15 K	195.14	–
252.03 K	–	197.13
252.15 K	195.91	–
253.15 K	196.71	–
254.15 K	197.56	–
255.15 K	198.46	–
256.15 K	199.17	–
257.15 K	199.9	–
258.15 K	200.87	–
259.15 K	201.58	–
260 K	–	202.45
260.15 K	202.15	–
261.15 K	203.09	–
262.09 K	–	203.85
262.15 K	203.84	–
263.15 K	204.4	–
264.15 K	205.1	–
265.15 K	205.89	–
266.15 K	206.4	–
267.15 K	207.11	–
268.15 K	207.89	–
269.15 K	208.64	–
270 K	–	209.71
270.15 K	209.5	–
271.15 K	210.37	–
272.12 K	–	211.38
272.15 K	211.22	–
273.15 K	211.63	212.01
274.15 K	212.27	–
275.15 K	213.11	–
276.15 K	213.85	–
277.15 K	214.68	–
278.15 K	215.33	–
279.15 K	216.09	–
280 K	–	217.04
280.15 K	216.75	–
281.15 K	217.54	–
282.15 K	218.34	–
282.18 K	–	219
283.15 K	219.11	–
284.15 K	219.88	–
285.15 K	220.37	–
286.15 K	221.11	–
287.15 K	221.79	–
288.15 K	222.53	–
